Reference: patent publication US20020192171A1, “Method for preventing malodor” (priority 2001, published 2002)

Experiments:
skin = conditions: human, in vivo
underarm odor = assay: Deodorant value test (modified), odor assessment on axillae of human subjects; type: in vivo; conditions: general statement in description
Description: A typical test for deodorant effect of the present invention was carried out as follows. The test solution was the composition containing 0.4% monensin. The positive control was 8.2% aluminum chlorhydrate, a level that is used in most deodorant or antiperspirant products on the market and 0.4% chlorhesidine digluconate, a level that is usually used for bacterial killing. The negative control was a vehicle consisting of 60% ethanol and 40% water. Three experienced underarm odor assessors who are able to rank correctly the odor intensities based on the deodorant value test system (U.S. Pat. No. 4,278,658) performed odor assessments. Deodorant assessment scores were recorded according to the malodor category scale, when applied directly to the axillae skin of a panel of human subjects. [table] The described in deodorant value test system has been modified by measuring odor intensity every 24 hours after treatment until odor intensity is detectable (average score 1 or up) on a 0-5 score instead of just 24 hours after In example 2, fifteen subjects selected by experienced odor assessors have average odor score 3.5 (range from score 3-5). […] At 24 hour intervals, each subject was evaluated for underarm odor by averaging the score of the three assessors until odor in test groups was detectable (score 1 or up).

CC[C@@]1([C@@H]2O[C@@H]([C@H]3O[C@@](O)(CO)[C@H](C)C[C@@H]3C)C[C@@H]2C)CC[C@H]([C@]2(C)CC[C@]3(C[C@H](O)[C@@H](C)[C@@H]([C@@H](C)[C@@H](OC)[C@H](C)C(=O)O)O3)O2)O1 [monensin, Monensin]
skin irritation (skin): did not cause any irritation
duration of deodorant effect in preventing malodor (underarm odor): deodorant effect with a longer period than expected
